# Measurements taken from patent US20090176817A1, “Method of Treatment of Diarrhea-Predominant Irritable Bowel Syndrome in a Subject” (priority 2005, published 2009).
# Key:
# clinical [1] = conditions: male, human, in vivo
# Procedure: The single- and multiple-dose pharmacokinetics of cilansetron 8 mg administered intravenously have been studied in a randomized, double-blind, placebo controlled, parallel group study in 12 male subjects (10 subjects received cilansetron 8 mg and 2 received placebo, administered as a 30-minute infusion). […] Doses on pharmacokinetic days were administered under fasted conditions. […] Renal elimination was again observed to be negligible (≦1% of dose).
# healthy subjects = assay: Study K.241.5009: esophageal visceral perception; format: in vivo, human; conditions: mean (SD); for Pressure first producing esophageal pain / Pressure first producing esophageal sensation / Volume first producing esophageal pain / Volume first producing esophageal sensation: absolute value; for Pressure first producing esophageal pain, Differences from Placebo / Pressure first producing esophageal sensation, Differences from Placebo / Volume first producing esophageal pain, Differences from Placebo / Volume first producing esophageal sensation, Differences from Placebo: not significant
# Procedure: The effect of cilansetron on esophageal visceral perception was evaluated in a randomized, double-blind, placebo-controlled, 3-way crossover study in 12 male healthy subjects (ITT population), aged 32-62 years. Subjects received placebo, cilansetron 4 mg, or cilansetron 8 mg administered orally TID for 7 days during each of the 3 periods, with a 7-day washout between periods. Esophageal distension tests were done one hour after administration of the second dose on Day 7 of each treatment. A manually inflated intraesophageal balloon was used to produce distensions (successive 1 mL increases, up to a sensation of […] pain or a maximum balloon volume of 20 mL). The primary efficacy parameter was the distension volume inducing esophageal pain. Secondary parameters were the distension volumes and pressures leading to first esophageal sensation. The pain threshold and other secondary parameters for each of the cilansetron doses was compared to placebo using a one-sided Dunnett t-test.
# [2] = system: patients with malignant tumors; assay: Study K.241.5017: cisplatin-induced nausea and vomiting; format: in vivo, human; conditions: IV 8 mg TID
# Procedure: The effect of cilansetron on nausea and vomiting has been studied in 2 clinical studies in cancer patients. Both studies were randomized, singleblind, positive-controlled, parallel-group, pilot studies in male and female patients with malignant tumors, to investigate the effect of cilansetron on cytostatic-induced nausea and vomiting. In both studies, patients were on their first cycle of chemotherapy and were being treated with cisplatin (275 mg/m2 as a single dose in Study S.24 1.2.10 1 and […] for 5 days in Study K.24 1 S O 17). Patients in Study S.24 1.2.10 1 were aged 40-74 years (ITT population=16) and patients in Study K.24 1 S O 17 were aged 39-74 years (ITT population=19). In both studies, patients were randomized to receive either […] or IV ondansetron 8 mg TID for 1 day (Study S.241.2.101) or 5 days (Study K.2415017), corresponding to the day(s) of their cisplatin administration. If nausea and vomiting were completely controlled on a treatment day, the second and/or third doses of cilansetron or ondansetron could be omitted on that day. The primary efficacy parameter in both studies was the combination of the occurrence of vomiting and the severity of nausea, with a responder being defined as a patient with no vomiting and not more than mild nausea during the treatment day(s). […]
# [3] = in vivo
# Procedure: Time to reach steady state following dosing with cilansetron 2 mg TID has been evaluated in a study in 9 healthy male and female subjects.
# clinical [4] = conditions: human, in vivo
# Procedure: Two randomized, double-blind, placebo controlled, balanced incomplete block design, crossover studies evaluated the single- and multiple-dose pharmacokinetics of oral cilansetron over a 8 mg to 32 mg dose range. In both studies, subjects were randomized to receive two of three treatments during 2 treatment periods. In one study (12 male and 13 female subjects, aged 23 to 36 years), subjects received 8 mg cilansetron, 16 mg cilansetron, or placebo, while in another study (12 males and 13 females, aged 23 to 41 years), subjects received 16 mg cilansetron, 32 mg cilansetron, or placebo. During each treatment period, subjects received a single dose of their assigned treatment on the first day, followed by a 3-day washout, after which they received the same treatment TID for 5 days.
# There was a 5-6 day washout period between treatment periods. Doses on the mornings of pharmacokinetic days were administered under fasted conditions. Serial blood sampling and urine collection was performed up to 12 hours following morning dosing on the first day (single dose) and on the last multiple dosing day of each treatment period, and cilansetron pharmacokinetic parameters were evaluated.
# In two randomized, double-blind, placebo controlled, balanced incomplete block design, crossover studies evaluating the single- and multiple-dose pharmacokinetics of oral cilansetron over a 8 mg to 32 mg dose range, subjects were randomized to receive two of three treatments during 2 treatment periods. In Study S.241.1.101; (12 male and 13 female subjects, aged 23 to 36 years), subjects received 8 mg cilansetron, 16 mg cilansetron, or placebo, while in Study S.24 1.1.102; (12 males and 13 females, aged 23 to 41 years), subjects received 16 mg cilansetron, 32 mg cilansetron, or placebo. During each treatment period, subjects received a single dose of their assigned treatment on the first day, followed by a 3-day washout, after which they received the same treatment TID for 5 days. There was a 5-6 day washout period between treatment periods. Doses on the mornings of pharmacokinetic days were administered under fasted conditions. Serial blood sampling and urine collection was performed up to 12 hours following morning dosing on the first day (single dose) and on the last multiple dosing day of each treatment period, and cilansetron pharmacokinetic parameters were evaluated.
# Procedure for cytochrome P450 enzymes: An in vitro study using human hepatic microsomes evaluated the effect of some enzyme inhibitors on the metabolism of cilansetron (100 μM).
smiles,measurement,setting,value
"Cc1nccn1C[C@H]1CCc2c(c3cccc4c3n2CCC4)C1=O [Cilansetron, (R)-(−)-4,5,6,8,9,10-hexahydro-10-[(2-methyl-1H-imidazol-1-yl)methyl]-11H-pyrido-[3,2,1-jk]-carbazol-11-one]",Intersubject % CV for AUC,clinical [1],31-34%
same,Intrasubject % CV,clinical [1],18%
same,Renal elimination,clinical [1],≤ 1 % of dose
same,% Dose (urine),clinical [1]; iv,0.44 (70) %
same,Linearity Ratio,clinical [1]; iv,118%
same,DN-AUC,"clinical [1]; iv, 8 mg",22.8 (31) ng · h/mL
same,AUC,"clinical [1]; iv, 8 mg, AUC",182 ng·h/mL
same,clearance,"clinical [1]; iv, 8 mg, CL",792 mL/min
same,CL renal,"clinical [1]; iv, 8 mg, CLr",3.29 mL/min
same,clearance,"clinical [1]; iv, 8 mg, Systemic plasma clearance",800 mL/min
same,half-life,"clinical [1]; iv, 8 mg, T½",1.7 h
same,Pressure first producing esophageal pain,healthy subjects; 4 mg TID oral 7 days,42.3 (11.3) mmHg
same,Pressure first producing esophageal sensation,healthy subjects; 4 mg TID oral 7 days,27.4 (9.6) mmHg
same,Volume first producing esophageal pain,healthy subjects; 4 mg TID oral 7 days,14.6 (4.3) mL
same,Volume first producing esophageal sensation,healthy subjects; 4 mg TID oral 7 days,5.3 (3.5) mL
same,"Pressure first producing esophageal pain, Differences from Placebo",healthy subjects; 4 mg TID oral 7 days,3.0 (24.0) mmHg
same,"Pressure first producing esophageal sensation, Differences from Placebo",healthy subjects; 4 mg TID oral 7 days,−2.5 (16.4) mmHg
same,"Volume first producing esophageal pain, Differences from Placebo",healthy subjects; 4 mg TID oral 7 days,1.4 (4.9) mL
same,"Volume first producing esophageal sensation, Differences from Placebo",healthy subjects; 4 mg TID oral 7 days,−0.3 (4.8) mL
same,Pressure first producing esophageal pain,healthy subjects; 8 mg TID oral 7 days,41.0 (12.5) mmHg
same,Pressure first producing esophageal sensation,healthy subjects; 8 mg TID oral 7 days,28.4 (10.9) mmHg
same,Volume first producing esophageal pain,healthy subjects; 8 mg TID oral 7 days,13.9 (5.8) mL
same,Volume first producing esophageal sensation,healthy subjects; 8 mg TID oral 7 days,5.2 (3.6) mL
same,"Pressure first producing esophageal pain, Differences from Placebo",healthy subjects; 8 mg TID oral 7 days,1.3 (22.5) mmHg
same,"Pressure first producing esophageal sensation, Differences from Placebo",healthy subjects; 8 mg TID oral 7 days,−2.5 (6.9) mmHg
same,"Volume first producing esophageal pain, Differences from Placebo",healthy subjects; 8 mg TID oral 7 days,0.8 (3.6) mL
same,"Volume first producing esophageal sensation, Differences from Placebo",healthy subjects; 8 mg TID oral 7 days,−0.5 (1.8) mL
same,Response rate,[2],21.4%
same,Steady state achieved by,[3],third day
same,Inhibition of any other cytochrome P450 enzyme activity,cytochrome P450 enzymes,no inhibition
same,Tmax,clinical [4]; both,1 h
same,Tmax,"clinical [4]; both, 8 mg",1 h
same,AUC,"clinical [4]; both, 8 mg",112 ng·h/mL
same,Cmax,"clinical [4]; both, 8 mg",43.3 ng/mL
same,half-life,"clinical [4]; both, 8 mg, T½",1.44 h
same,half-life,"clinical [4]; both, 16 mg, T½",1.3 h
same,half-life,"clinical [4]; both, Mean half-life",1.2 to 1.4 h
same,Tmax,"clinical [4]; female, 8 mg",1 h
same,AUC,"clinical [4]; female, 8 mg",104 ng·h/mL
same,Cmax,"clinical [4]; female, 8 mg",43.2 ng/mL
same,half-life,"clinical [4]; female, 8 mg, T½",1.41 h
same,Tmax,"clinical [4]; female, po, 8 mg",1 h
same,AUC,"clinical [4]; female, po, 8 mg",138 ng·h/mL
same,Cmax,"clinical [4]; female, po, 8 mg",52.2 ng/mL
same,half-life,"clinical [4]; female, po, 8 mg, T½",1.45 h
same,Tmax,"clinical [4]; female, po, 16 mg",1 h
same,Tmax,"clinical [4]; male, 8 mg",1 h
same,AUC,"clinical [4]; male, 8 mg",74.5 ng·h/mL
same,Cmax,"clinical [4]; male, 8 mg",35.8 ng/mL
same,half-life,"clinical [4]; male, 8 mg, T½",1.22 h
same,Tmax,"clinical [4]; male, po, 8 mg",1 h
same,AUC,"clinical [4]; male, po, 8 mg",89.9 ng·h/mL
same,Cmax,"clinical [4]; male, po, 8 mg",35.5 ng/mL
same,half-life,"clinical [4]; male, po, 8 mg, T½",1.44 h
same,Tmax,"clinical [4]; male, po, 16 mg",1 h
